Format in all cases: in vivo, rat
Data set [1] concerns SPD rats. Put plainly: EPM after 7 days oral gavage, SPD rats, Study 3. Particulars: 7 days gavage 5 g/kg b.w./day. How it is done: (§1) Generally, exogenous ketone supplementation was tested by adding to food and feeding chronically for 83 days in SPD rats and administering sub-chronically for 7 days in both rat models by daily intragastric gavage bolus, followed by assessment of anxiety measures on EPM. The groups included standard diet (SD) or SD+ketone supplementation.
(§2) EPM (Coulbourn Instruments) was used to assess anxiety-related behavior of the rats after 83 days of chronic feeding or after 7 days of oral gavage. EPM experiments were carried out under non-stress conditions (in dimly lit and quiet room) between 12.00 and 14.00 hours.
(§3) The rats were transferred in their home cage to the experimental room 30 min prior to beginning the experiment. Briefly, rats were placed in the intersection of the four arms of the EPM, facing the open arm opposite to where the experimenter was and their behavior was recorded for 5 minutes. The amount of time spent and number of entries made on the open arms, closed arms and the center zones were video recorded. Latency to entry into the closed arms and the distance travelled in each zones was also measured in chronically treated SPD rats. […] At the end of the 5-minute test, the rats were removed from the maze and placed back into their home cage. The maze was cleaned with 70% alcohol and after it with tap water and dried with paper towel between rats. The primary method for data collection was a video-tracking system with computer interface and video camera (SMART V3.0 PLATFORM, Panlab, Harvard Apparatus, USA), to automatically collect behavioral data in SPD rats. A blinded observer was present in the testing room separated from the maze by a curtain, and collected EPM data in both SPD and WAG/Rij animals.
(§4) Results were considered significant when p<0.05.

Data set [2] deals with SPD rats. Put plainly: EPM after 83 days chronic feeding, SPD rats, Study 3. The following applies: chronic feeding 83 days, compared to control (SD). As to the method: as §1, §2, §3, §4
Data set [3] can be described thus: Blood βHB and glucose levels (PRECISION XTRA), WAG/Rij rats, Study 1. The following applies: for Blood βHB: WAG/Rij rats, after 7 days of gavaging ~2.5 g/kg b.w./day, compared to baseline; for Glucose, Mean Diff., Tukey's multiple comparisons test (Compare S-D to WagRij) / βHB, Mean Diff., Tukey's multiple comparisons test (Compare S-D to WagRij): WR (WAG/Rij) rats, own Baseline minus 7 days of the same group.

A short description of data set [4]: Body weight, SPD rats, Study 1. Particulars: for Body Weight (7 days), Mean Diff., Tukey's multiple comparisons test: in g (unit assumed). As to the method: The body weight of all animals was recorded before ketone treatments started (before) and after the last ketone treatments (after).
Results were considered significant when p<0.05. […]

A further data set relates to WAG/Rij rats. The experiment in a line: EPM after 7 days oral gavage, WAG/Rij rats, Study 1. The following applies: 7 days gavage ~2.5 g/kg b.w./day, compared to control (SD). As to the method: To extend the results and ensure that the results were not strain dependent, exogenous ketone supplements were tested on both SPD rats and Wistar Albino Glaxo/Rijswijk (WAG/Rij) rats for 7 days by gavage (5 g/kg/day and 2.5 g/kg/day, respectively, SD+KE and SD+KS), as WAG/Rij rats show reduced activity of GABAergic system (Luhmann H J, et al. Impairment of intracortical GABAergic inhibition in a rat model of absence epilepsy. Epilepsy Res. 1995 September; 22(1):43-51).
(§5) EPM (COULBOURN Instruments) was used to assess anxiety-related behavior of the rats after 83 days of chronic feeding or after 7 days of oral gavage. EPM experiments were carried out under non-stressful conditions (in a dimly lit and quiet room) between 12.00 and 14.00 hours.
(§6) The rats were transferred in their home cage to the experimental room 30 min prior to beginning the experiment. Briefly, rats were placed in the intersection of the four arms of the EPM, facing the open arm opposite to where the experimenter was and their behavior was recorded for 5 minutes. The amount of time spent and number of entries made on the open arms, closed arms and the center zones were recorded. Latency to entry into the closed arms and the distance travelled in each zones was also measured in chronically treated SPD rats. Notes were made on other ethological measures such as number of rears, head dips, fecal boli, and freezing, or stretched-attend postures.
(§7) At the end of the 5-minute test the rats were removed from the maze and placed back into their home cage. The maze was cleaned with 70% alcohol and after it with tap water and dried with paper towel between rats. The primary method for data collection was a video-tracking system with computer interface and video camera (SMART V3.0 PLATFORM, PANLAB, Harvard Apparatus, USA), to automatically collect behavioral data in SPD rats. A blinded observer was present in the testing room separated from the maze by a curtain, and manually collected EPM data in both SPD and WAG/Rij animals at the end of treatments.
Results were considered significant when p<0.05. Significance was determined by unpaired t-test.

The test system of data set [5] is Sprague-Dawley (SPD) rats. Put plainly: EPM after 7 days oral gavage, SPD rats, Study 1. The following applies: compared to control (SD); for Time spent in the center: 7 days (gavage 5 g/kg b.w./day or KD fed). How it is done:
as §5, §6, §7
(§8) All data are presented as the mean±standard error of the mean (SEM). The effects of ketone supplementations on anxiety level were compared, as well as on blood βHB and glucose levels to control or/and baseline levels. Data analysis was performed using GraphPad PRISM version 6.0a. Results were considered significant when p<0.05. Significance was determined by unpaired t-test. Blood ketone, blood glucose, and body weight change were compared using a two-way ANOVA with Tukey's multiple comparisons test and unpaired t-test.

Data set [6] concerns Sprague-Dawley (SPD) rats. Put plainly: Elevated plus maze (EPM) after 83 days chronic feeding, Study 1. Particulars: compared to control (SD). As to the method: Generally, exogenous ketone supplements were tested and fed chronically for 83 days and administered sub-chronically for 7 days by gavage, followed by assessment of anxiety measures on elevated plus maze (EPM) on 97 male SPD rats.
In order to familiarize the animals to the intragastric gavage method, tap water was gavaged for 5 days before ketone supplementation. A total of 48 male SPD rats were fed for 83 days with either standard rodent chow (SD)+water application (˜25 g/kg b.w. water/day) (SD/control group; n=9) or SD+ketone supplementation by gavage.
as §5, §6, §7, §8

The mark [7] stands for this setting: After:SD (control) minus After:treated group.

In the case of `CC(=O)CC(=O)OCCC(C)OC(=O)CC(C)=O` (centres unmarked) [KE, 1,3-butanediol-acetoacetate diester], in the data set on SPD rats [1] (compared to control), the “Entries to the closed arms” value is reported as “less frequent”, the “Time spent in the center” value is listed as “decreased” and the “Time spent in the open arms” value is “increased”. In the data set with SPD rats [2], the “Distance traveled in the closed arms” value is listed as “significantly less” and the “Time spent in the closed arms” value is “significantly less”. Moreover, in data set [3], the “Blood βHB” value is recorded as “elevated”; the “Glucose, Mean Diff., Tukey's multiple comparisons test (Compare S-D to WagRij)” value is -2.75 mg/dL; the “βHB, Mean Diff., Tukey's multiple comparisons test (Compare S-D to WagRij)” value is recorded as −0.6125 mmol/1. Besides, the “Body Weight (7 days), Mean Diff., Tukey's multiple comparisons test” value in data set [4] (setting [7]) amounted to 37.03. Further, the Body weight entry in data set [4] (after chronic feeding (week 13), compared to control, listed as SD+LKE) is “higher”. Further, the “Body Weight (90 days), Mean Diff., Tukey's multiple comparisons test” value in data set [4] (chronic feeding, After:SD (control) minus After:treated group) is 73.96. The “Time spent in the center” value with WAG/Rij rats is given as “more time”. Moreover, the “Time spent in the center” value in data set [5] is reported as “decreased”. In addition, the “Time spent in the open arms” value in data set [5] (7 days gavage 5 g/kg b.w./day) is given as “increased”. Besides, in data set [6] (chronic feeding 83 days), the “Distance traveled in the closed arms” value is “significantly less” and the “Latency to first entrance of closed arms” value was “significantly greater”.
As to Na^+/K^+-βHB mineral salt [KS], in the data set with SPD rats [1] (compared to control), the “Entries to the closed arms” value was “less frequent” and the “Time spent in the center” value was “decreased”. The “Entries to the center” value in the data set with SPD rats [1] (compared to control (SD)) was “fewer times”. In the data set with SPD rats [2], the “Distance traveled in the center” value is “more”, the “Distance traveled in the closed arms” value was “significantly less”, the “Distance traveled in the open arms” value is given as “significantly greater” and the “Time spent in the center” value is “significantly more”. In addition, the “Time spent in the closed arms” value in the data set with SPD rats [2] is on record as “significantly less”. In data set [3], the “Blood βHB” value is reported as “elevated”; the “Glucose, Mean Diff., Tukey's multiple comparisons test (Compare S-D to WagRij)” value was -6.5 mg/dL; the “βHB, Mean Diff., Tukey's multiple comparisons test (Compare S-D to WagRij)” value is listed as −0.5375 mmol/1. Further, in data set [4] (setting [7]), the “Body Weight (7 days), Mean Diff., Tukey's multiple comparisons test” value is reported as 48.25. Besides, in the data set on WAG/Rij rats, the “Entries to the closed arms” value is “less frequent”, the “Time spent in the closed arms” value is recorded as “less time” and the “Time spent in the open arms” value is on record as “more time”. Moreover, in data set [5], the “Time spent in the center” value is on record as “decreased”. In addition, in data set [5] (7 days gavage 5 g/kg b.w./day), the “Entries to the center” value is given as “fewer times” and the “Entries to the closed arms” value is “less frequent”. Also, in data set [6] (chronic feeding 83 days (~25 g/kg b.w./day; LKE ~10)), the “Time spent in the open arms” value is listed as “significantly more”. In data set [6] (chronic feeding 83 days), the “Distance traveled in the center” value is listed as “more”, the “Distance traveled in the closed arms” value was “significantly less”, the “Distance traveled in the open arms” value was “significantly greater” and the “Latency to first entrance of closed arms” value is on record as “significantly greater”. In addition, in data set [6] (chronic feeding 83 days), the “Time spent in the center” value was “significantly more” and the “Time spent in the closed arms” value is given as “significantly less”.
